# Experimental data: a melting point compilation (Tetko et al.)
row,Structure (SMILES),melting point [°C]
1,O=C(O)c1cn(C2CCCCC2)nn1,163 to 165
2,O=C(O)CCc1nnc(-c2ccc(Cl)cc2)o1,159 to 161
3,Cc1ccccc1-n1c(S)nc2ccccc2c1=O,96 to 97
4,COc1ccc2cc(CO)ccc2c1,122 to 124
5,CC1CCCC(NC(=O)OC(C)(C)C)(C(=O)O)C1 (configuration not stated),149 to 151
6,Cc1cc(F)c(S(=O)(=O)Cl)cc1[N+](=O)[O-],64 to 66
7,NC(=O)Cn1c(S)nnc1-c1cccs1,319 to 321
8,COC(=O)Cn1cnc2cc(F)ccc2c1=O,144 to 146
9,CC(=O)CN1C(=O)c2ccccc2S1(=O)=O,144 to 146
10,CC(=O)Nc1cccc(CN)c1,82 to 84
11,CC(C)NS(=O)(=O)c1cccc(C(=O)O)c1,162 to 164
12,Cc1cc(CN2CCSCC2)ccc1N,106 to 108
13,O=C(O)C1CCN(C(=O)C2(c3ccccc3)CCC2)CC1,146 to 148
14,Nc1ccc(N2CCCC2)nc1,83 to 85
15,O=C1CCS(=O)(=O)CC1,167 to 169
16,COc1ccc(-c2csc(N)n2)cc1F,185 to 187
17,c1ccc(-n2cccn2)nc1,37 to 39
18,CCNc1ccncc1,103 to 105
19,CS(=O)(=O)Cc1ccc(C(=O)O)cc1,253 to 255
20,O=c1[nH]c(Cl)nc2c1cnn2-c1ccccc1,276 to 278
21,Cc1ccc(S(=O)(=O)CC(C)O)cc1 (configuration not stated),76 to 78
22,CC(C)(C)Cc1nc(-c2cccc(C(=O)O)c2)no1,160 to 162
23,CS(=O)(=O)c1ccc(-c2nc(CCl)co2)cc1,129 to 131

row,Structure (SMILES),melting point [°C]
1,Clc1nnc(-c2cccc3ncccc23)s1,143 to 145
2,O=C(O)C1CSC2(c3ccccc3)CCC(=O)N12 (configuration not stated),173 to 175
3,COc1cc(C(=O)O)ccc1OCc1ccc(Cl)cc1,221 to 223
4,NC(=O)c1cnn(-c2ncccn2)c1N,256 to 258
5,COC(=O)C1CCc2ccccc2C1=O (configuration not stated),71 to 73
6,COC(=O)C(Cc1c[nH]c2ccccc12)NC(=O)c1ccc2ccccc2c1 (configuration not stated),182 to 184
7,CC(C)Oc1ccc(CCCO)cc1,31 to 33
8,Cc1ccc(-c2ccsc2C(=O)O)cc1,134 to 136
9,Oc1ccc(-c2ncc[nH]2)cc1,265 to 267
10,O=C1COc2ccc(Cl)cc2N1,211 to 213
11,Cc1ccc(S(=O)(=O)N2CCC(C(=O)O)CC2)cc1,181 to 183
12,Cn1ccnc1Sc1ccc(C=O)cc1[N+](=O)[O-],173 to 175
13,O=C(O)CNC(=O)NCc1cccc([N+](=O)[O-])c1,153 to 155
14,NC(=O)CCn1ccnc1,137 to 139
15,COC(=O)c1ccc(CS(N)(=O)=O)cc1,138 to 140
16,O=C(Nc1ccc(Br)cn1)C1CCNCC1,144 to 146
17,Nc1nc(CCl)nc2ccccc12,163 to 165
18,CC(=O)NCc1ccc(S(=O)(=O)NCC(=O)O)s1,192 to 194
19,NC(=S)NCc1ccc(Br)cc1,159 to 161
20,Cc1cccc(NC(=O)CN2CCNCC2)c1C,55 to 57
21,N#Cc1cnn(CCO)c1N,156 to 158
22,NC(=S)Cc1nc2ccccc2s1,173 to 175
23,COc1ccc(C(=O)O)cc1S(=O)(=O)Nc1ccc(C)cc1,258 to 260

row,Structure (SMILES),melting point [°C]
1,O=C(O)CSc1ccccc1[N+](=O)[O-],166 to 168
2,NC(N=O)=C1NC=Cc2ccccc21,125 to 127
3,O=[N+]([O-])c1cccc2c1NCCC2,69 to 71
4,O=C1Nc2ccc(Br)cc2C12CCCC2,201 to 203
5,N[C@H]1CC[C@@H](CO)CC1,144 to 146
6,N#Cc1cc(Cl)nc2ccc([N+](=O)[O-])cc12,173 to 175
7,CN1C(=O)CNc2ccccc21,88 to 90
8,Cc1ccc(S(=O)(=O)NC2CCCCC2)cc1C(=O)O,217 to 219
9,CCN(c1ccccc1)S(=O)(=O)c1ccc(Cl)c([N+](=O)[O-])c1,122 to 124
10,Cc1cc(Br)cc(C)c1C#N,68 to 70
11,Cc1[nH]n(-c2ccc(C#N)cc2)c(=N)c1C,180 to 182
12,N#CCc1nc(-c2c(F)cccc2F)cs1,75 to 77
13,ClCc1nc(-c2ccoc2)no1,50 to 52
14,CS(=O)(=O)c1cccc(Oc2ccc(N)cc2)c1,103 to 105
15,Nc1cc(C(=O)O)c2ccccc2c1,178 to 180
16,CN(CCO)c1ccc([N+](=O)[O-])cc1,97 to 99
17,O=C(CCCl)Nc1ccc(Cl)cc1,124 to 126
18,NC(=NO)c1ccc(Br)s1,124 to 126
19,CN(C)S(=O)(=O)c1ccc(N2CCOCC2)c(C(=O)O)c1,218 to 220
20,Cc1cc(Cl)ccc1S(=O)(=O)Cl,54 to 56
21,CC1CCC(C)N1c1cn[nH]c1 (configuration not stated),65 to 67
22,CNc1ccc(OCCOC)cc1,59 to 61
23,CCNS(=O)(=O)c1c[nH]c(C(=O)O)c1,183 to 185

# Next, values leading:
row,melting point [°C],Structure (SMILES)
1,61 to 63,O=Cc1cc(Br)ccc1OCc1ccccc1
2,172 to 174,COc1c(C(=O)O)c(C)nn1C
3,189 to 191,Cc1ccc(S(=O)(=O)Nc2cc(Cl)ccc2O)cc1
4,179 to 181,Cc1nsc2ncc(C(=O)O)cc12
5,139 to 141,O=C(Cc1ccccc1)NC1CCNCC1
6,214 to 216,O=C(O)C1CCCN(c2ncnc3sccc23)C1 (configuration not stated)
7,142 to 144,COc1ccc(S)c2ccccc12
8,75 to 77,CC(C(=O)O)c1cccc(Cl)c1 (configuration not stated)
9,87 to 89,CCOC(=O)c1cnn(CCC#N)c1
10,155 to 157,CN(C)S(=O)(=O)c1cccc(NC(=S)NN)c1
11,67 to 69,CCNc1ccc(Br)cn1
12,174 to 176,CCCNC(=O)Nc1ccc(CC(=O)O)cc1
13,86 to 88,CC(CN1CCOCC1)C(=O)NN (configuration not stated)
14,79 to 81,COc1ccc(NC(=O)OCC(F)(F)F)cc1
15,97 to 99,Cc1ccccc1-c1cc(N)n(C)n1
16,93 to 95,CC(C)CCNC(=O)NC(=O)CCl
17,110 to 112,CC(Cl)C(=O)NC(C)c1ccc2c(c1)OCCO2 (configuration not stated)
18,158 to 160,CC(C)C(=O)Nc1ccc(O)cc1
19,125 to 127,COc1ccc(N)cc1NS(C)(=O)=O
20,104 to 106,Cc1nc(-c2cccc(N)c2)oc1C

row,melting point [°C],Structure (SMILES)
1,54 to 56,O=C(O)CC=Cc1ccccc1F
2,254 to 256,COC(=O)c1cc([N+](=O)[O-])c[nH]c1=O
3,99 to 101,CNS(=O)(=O)c1ccc(S(=O)(=O)Cl)cc1
4,143 to 145,CCS(=O)(=O)N1CCC(C(=O)O)CC1
5,114 to 116,N#CCS(=O)(=O)c1cc(Cl)ccc1Cl
6,99 to 101,O=C(CCl)Nc1ccnn1Cc1ccccc1
7,150 to 152,O=C(O)CCNS(=O)(=O)c1ccc(OC(F)(F)F)cc1
8,299 to 301,NS(=O)(=O)c1cc(C(=O)O)cc2c1CCC2
9,170 to 172,Nc1nc2c(OCC(F)(F)F)cccc2s1
10,219 to 221,COc1ccc(C(=O)O)cc1OCc1ccccn1
11,247 to 249,Cc1ccc(-c2nnc(N)o2)s1
12,290 to 292,O=c1oc2ccccc2c(O)c1Cc1c(O)c2ccccc2oc1=O
13,113 to 115,CCOC(=O)c1ccc(-n2c(C)cc(C=O)c2C)cc1
14,159 to 161,COCc1cc(O)ncn1
15,148 to 150,CN(C)c1ccc(C(=N)N)c(Cl)c1
16,93 to 95,O=Cc1ccccc1OCC(=O)NCC1CC1
17,144 to 146,Nc1onc(-c2ccccc2)c1-c1ccccc1
18,265 to 267,O=c1[nH]c(CCl)nc2sc3c(c12)CCCC3
19,209 to 211,Cc1ccc2c(Cl)cc(Cl)c(OCC(=O)O)c2n1
20,161 to 163,O=C(O)c1cccc(F)c1Sc1ccccc1

row,melting point [°C],Structure (SMILES)
1,290 to 292,CNC(C(=O)O)c1ccccc1C(F)(F)F (configuration not stated)
2,110 to 112,CC(C)C(NC(=O)Cc1ccccc1)C(=O)O (configuration not stated)
3,121 to 123,COc1ccc(NS(=O)(=O)c2ccc(C(C)=O)cc2)cc1
4,90 to 92,COc1cc(C=O)cc(Br)c1OC(F)F
5,242 to 244,N=C(N)Nc1nc2ccccc2[nH]1
6,163 to 165,CC(=O)Oc1cc(C(=O)O)cc(OC(C)=O)c1OC(C)=O
7,54 to 56,CC(C)c1ccc(CCNC(=O)CCl)cc1
8,119 to 162,CN(C)S(=O)(=O)c1ccc(N)cc1
9,94 to 96,Nc1nc(Cl)ccc1Cl
10,229 to 231,O=C1NC(=O)C2(CCc3ccccc32)N1 (configuration not stated)
11,153 to 155,NC(=O)Cn1cnc([N+](=O)[O-])c1
12,122 to 124,O=C(O)CCC(=O)c1ccc(Cl)s1
13,133 to 135,O=C(O)CSC(=Cc1ccco1)c1nc2ccccc2s1
14,187 to 189,O=c1[nH]c(-c2ccccc2F)cs1
15,226 to 228,CC(C)(C)c1nnc(N)o1
16,148 to 150,COCCN1C(=O)CC(=O)NC1=S
17,66 to 68,N#CC(Cl)(Cl)c1nc2ccccc2s1
18,62 to 64,O=C1CCS(=O)CC1
